Results from patent US20260193668A1, “NOVEL PEPTIDES AND USE THEREOF FOR MODULATING PROTEIN ACCUMULATION” (UNIVERSITE TOULOUSE III - PAUL SABATIER, priority 2022, published 2026).

Legend:
[1] = system: soybean plants; test: Heat stress resistance of soybean plants; type: in vivo, Glycine max; settings: 45° C. for 24 h
From the text: (§1) (a, b) Relative area of lesions on S. lycopersicum leaves infected with B. cinerea and treated with an irrelevant peptide or cPEPjar1. (c, d) Heat stress resistance of soybean plants treated with an irrelevant peptide or cPEPsp101. (e, f) Growth (plant height) of soybean plants treated with an irrelevant peptide or a mixture of cPEPs (targeting MRB1, SHY2 and SGR1). (g, h) Leaf area of B. vulgaris plants treated with an irrelevant peptide or a mixture of cPEPs (targeting EIN2, BR11, BAK1 and WUS). (i, j) Leaf surface of A. hypochondriacus plants treated with an irrelevant peptide or a mixture of cPEPs (targeting EIN2, BR11, BAK1 and WUS).
N. benthamiana plants were treated by spraying the leaves 24 h before harvesting. For Luc assays, 100 μL of MS/2 liquid medium containing the peptides was added to each well. 5 μL of luciferin was added and luciferase activity was read 30 min later using a spectrophotometer. All other assays were performed by spraying or watering the plants. To quantify the protein level induced by cPEPs in Arabidopsis, rosettes were sprayed daily with 100 μM of peptide or its control for 5 days. Leaves were harvested 6 h after the last treatment for western blot analysis. […] Chlorophyll content was measured using the SPAD chlorophylometer (Konica Minolta). Leaf area was measured using ImageJ software. […]

[2] = system: Botrytis cinerea; test: S. lycopersicum leaves infected with B. cinerea; type: in vivo; settings: tomato
From the text: as §1
Wild-type or mutant A. thaliana leaves were sprayed daily with 100 μM of peptide or 100 μM of the corresponding scramble version for 3 days. Six hours after the last treatment, five mature leaves per plant were inoculated with a 5 μL droplet of 2.5×10^5 spores/mL of Botrytis cinerea strain B05.10 diluted in 100 μM of peptide or its corresponding scramble version. After inoculation, plants were maintained at 100% relative humidity. Then, a 2 μL droplet of 100 μM of peptide or 100 μM of the corresponding scramble version was deposited daily on B. cinerea-infected leaves for 3 days (until symptoms appeared). Leaves were removed from the plants to determine lesion areas using the ImageJ programme. […]

[3] = system: luciferase mRNA; test: Relative expression of the luciferase transgene by RT-qPCR; type: in vivo, Arabidopsis thaliana; settings: A. thaliana expressing LUC treated with synthetic peptide
From the text: (§2) Analysis of luciferase expression in A. thaliana constitutively expressing the LUC transgene. (a) Agarose gel after PCR amplification of RNA obtained by immunoprecipitation using anti-HA magnetic beads, followed by RT-PCR, on plants treated with the indicated peptide (SC-HA: Scrambled cPEPluc-HA; Luc-HA: cPEPluc-HA). (b) Relative expression of the luciferase transgene in plants treated with the indicated peptide, quantified by RT-qPCR. (c-e) Relative quantification of LUC in plants treated with the indicated peptide. (f, g) Ratio between induction and quantification of LUC in plants treated with cPEPluc compared to plants treated with Scrambled cPEPluc, using different peptide concentrations (f) or taken at different time points (g). (h) Transcriptomic analysis of plants treated with cPEPluc-HA compared to plants treated with Scrambled cPEPluc-HA. (i) Proteomic analysis of plants treated with cPEPluc-HA compared to plants treated with Scrambled cPEPluc-HA. Protein expression was analysed by Western blots and quantified using ImageJ.
Quantification of mRNAs was performed by qRT-PCR using appropriate primer pairs selected from the sequences: SEQ ID NOs: 367 to 374. Expression levels for the controls were set at 100. The primers used for the A. euteiches assays are described in Camborde et al (New Phytol. 233:2232-2248. 2022).

[4] = system: luciferase; test: Luciferase activity in A. thaliana constitutively expressing the LUC transgene; type: in vivo, Arabidopsis thaliana
From the text: as §2
Medicago truncatula Gaertn cv. Jemalong genotype A17 were grown on Long Aston medium as described in Delaux P M et al (New Phytol. 2013 July; 199(1):59-65). Arabidopsis thaliana Col-0 plants were grown in soil until 4 weeks of age in a growth chamber (22/20° C., 16 h/8 h L/D, RH 80%, ~75 μmol·m^−2 s^−1). Barbarea vulgaris seeds were stratified for 24 h at 4° C. before being grown in pots in a growth chamber. Seeds of Amaranthus hypochondriacus, Glycine max and Solanum lycopersicum were sown in pots and grown in a growth chamber. […]
N. benthamiana plants were treated by spraying the leaves 24 h before harvesting. […] 5 μL of luciferin was added and luciferase activity was read 30 min later using a spectrophotometer. […] To quantify the protein level induced by cPEPs in Arabidopsis, rosettes were sprayed daily with 100 μM of peptide or its control for 5 days. […] Chlorophyll content was measured using the SPAD chlorophylometer (Konica Minolta). Leaf area was measured using ImageJ software. […]

[5] = system: luciferase; test: Luciferase activity in A. thaliana LUC plants with or without cycloheximide; type: in vivo, Arabidopsis thaliana; settings: cycloheximide 200 μg·mL^−1, 24 h
Description: (§3) (a) Analysis of luciferase activity in A. thaliana plants constitutively expressing the LUC transgene and treated with Scrambled cPEPluc or cPEPluc, with or without cycloheximide. (b) Analysis of luciferase activity after in vitro transcription/translation of luciferase expressed with cPEPluc or Scrambled cPEPluc.
Arabidopsis thaliana plants comprising the LUC construct were treated by infiltrating the leaves with a solution of peptide with or without cycloheximide (200 μg·mL^−1) in MS/2 medium, 24 h before harvesting for the LUC assay.

[6] = system: luciferase; test: In vitro transcription/translation of luciferase (wheat germ system); type: biochemical; settings: 60 min
From the text: as §3
The TnT® SP6 high-throughput wheat germ protein expression system (Promega) was used according to the manufacturer's instructions. The LUC sequence was amplified using the GoTaq Polymerase® (Promega), cPEPs or their corresponding Scramble versions were added just prior to the start of the reaction. The reaction was stopped after 60 min, after which LUC activity was measured using a plate spectrophotometer (Perkin-Elmer Victor Nivo).

[7] = 96-well assay, cPEPluc compared to Scrambled cPEPluc

cPEPhsp101 (EEYRKYVEKD; cPEPhsp101) [SEQ ID NO: 408, cPEP targeting the homolog of HSP101 in soybean]
tolerance to heat stress [1]: increased

cPEPjar1: cPEP targeting the tomato JAR1 protein (AFRTFEQVWE; cPEpjar1)
plant's resistance to B. cinerea [2]: improved

cPEPluc: complementary peptide of 10 amino acids corresponding to a 10 amino acid fragment of the luciferase protein (KRYGLNTNHR; cPEPluc)
luciferase mRNA abundance (qPCR) [3]: no effect
optimum concentration of cPEP for luciferase induction [4, 7]: 50 µM
treatment time showing the maximum effect of cPEP [4, 7]: 24 h
luciferase activity ([4]; A. thaliana LUC seedlings, exogenous peptide treatment, compared with water or non-luciferase-specific peptides): increased
effect of cPEPluc on luciferase activity in the presence of CHX [5]: inhibited
LUC activity in vitro [6]: increased
